From ChEMBL document CHEMBL1156482, “Molecular mechanism of action of monocyclam versus bicyclam non-peptide antagonists in the CXCR4 chemokine receptor” (J Biol Chem, 2007)

Columns and labels:
[1] = biological target: C-X-C chemokine receptor type 4 (Homo sapiens, UniProt P61073, I259A); experiment: (§1) Antagonist activity at transmembrane domain 6 of human CXCR4 I259A mutant expressed in COS7 cells coexpressing G protein Gqi4myr assessed as inhibition of CXCL12-induced phosphatidylinositol turnover; format: functional, cell-based, COS-7
C-X-C chemokine receptor type 4 (Homo sapiens, UniProt P61073, I259A), sequence (P61073 whole entry I259A, the tested form may be a part): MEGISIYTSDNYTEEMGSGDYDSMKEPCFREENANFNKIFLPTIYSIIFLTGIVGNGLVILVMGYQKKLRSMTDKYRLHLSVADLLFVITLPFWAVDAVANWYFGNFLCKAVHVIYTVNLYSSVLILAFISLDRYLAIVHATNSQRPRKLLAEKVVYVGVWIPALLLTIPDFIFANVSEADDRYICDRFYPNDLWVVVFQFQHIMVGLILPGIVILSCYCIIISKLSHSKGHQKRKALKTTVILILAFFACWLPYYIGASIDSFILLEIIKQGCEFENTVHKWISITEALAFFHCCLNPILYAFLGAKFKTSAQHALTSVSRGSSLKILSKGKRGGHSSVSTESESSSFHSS

[2] = test system: C-X-C chemokine receptor type 4 (Homo sapiens), P61073 [I259A]; experiment: as §1; format: functional, cell-based; settings: COS-7
C-X-C chemokine receptor type 4 (Homo sapiens), P61073 [I259A], sequence (P61073 whole entry I259A): as the sequence (P61073 whole entry I259A, the tested form may be a part) above

[3] = biological target: C-X-C chemokine receptor type 4 (Homo sapiens, UniProt P61073, F172A); experiment: (§2) Antagonist activity at human CXCR4 F172A mutant expressed in COS7 cells coexpressing G protein Gqi4myr assessed as inhibition of CXCL12-induced phosphatidylinositol turnover; format: functional, cell-based, COS-7
[4] = test system: C-X-C chemokine receptor type 4 (Homo sapiens), P61073 [F172A]; experiment: as §2; format: functional, cell-based; settings: COS-7
[5] = test system: C-X-C chemokine receptor type 4 (Homo sapiens), P61073 [A175F]; experiment: (§3) Antagonist activity at human CXCR4 A175F mutant expressed in COS7 cells coexpressing G protein Gqi4myr assessed as inhibition of CXCL12-induced phosphatidylinositol turnover; format: functional, cell-based; settings: COS-7
C-X-C chemokine receptor type 4 (Homo sapiens), P61073 [A175F], sequence (P61073 whole entry A175F): as the sequence (P61073 whole entry I259A, the tested form may be a part) above, with A175F, A259I counted along it

[6] = biological target: C-X-C chemokine receptor type 4 (Homo sapiens, UniProt P61073, A175F); experiment: as §3; format: functional, cell-based, COS-7
C-X-C chemokine receptor type 4 (Homo sapiens, UniProt P61073, A175F), sequence (P61073 whole entry A175F): as the sequence (P61073 whole entry I259A, the tested form may be a part) above, with A175F, A259I counted along it

[7] = biological target: C-X-C chemokine receptor type 4 (Homo sapiens, UniProt P61073, H113A); experiment: (§4) Antagonist activity at human CXCR4 H113A mutant expressed in COS7 cells coexpressing G protein Gqi4myr assessed as inhibition of CXCL12-induced phosphatidylinositol turnover; format: functional, cell-based, COS-7
[8] = test system: C-X-C chemokine receptor type 4 (Homo sapiens), P61073 [H113A]; experiment: as §4; format: functional, cell-based; settings: COS-7
[9] = biological target: C-X-C chemokine receptor type 4 (Homo sapiens, UniProt P61073, D262N); experiment: (§5) Antagonist activity at human CXCR4 D262N mutant expressed in COS7 cells coexpressing G protein Gqi4myr assessed as inhibition of CXCL12-induced phosphatidylinositol turnover; format: functional, cell-based, COS-7
C-X-C chemokine receptor type 4 (Homo sapiens, UniProt P61073, D262N), sequence (P61073 whole entry D262N): as the sequence (P61073 whole entry I259A, the tested form may be a part) above, with A259I, D262N counted along it

[10] = test system: C-X-C chemokine receptor type 4 (Homo sapiens), P61073 [D262N]; experiment: as §5; format: functional, cell-based; settings: COS-7
C-X-C chemokine receptor type 4 (Homo sapiens), P61073 [D262N], sequence (P61073 whole entry D262N): as the sequence (P61073 whole entry I259A, the tested form may be a part) above, with A259I, D262N counted along it

[11] = biological target: C-X-C chemokine receptor type 4 (Homo sapiens, UniProt P61073, T287A); experiment: (§6) Antagonist activity at human CXCR4 T287A mutant expressed in COS7 cells coexpressing G protein Gqi4myr assessed as inhibition of CXCL12-induced phosphatidylinositol turnover; format: functional, cell-based, COS-7
[12] = test system: C-X-C chemokine receptor type 4 (Homo sapiens), P61073 [T287A]; experiment: as §6; format: functional, cell-based; settings: COS-7
[13] = biological target: C-X-C chemokine receptor type 4 (Homo sapiens, UniProt P61073, I284A); experiment: (§7) Antagonist activity at human CXCR4 I284A mutant expressed in COS7 cells coexpressing G protein Gqi4myr assessed as inhibition of CXCL12-induced phosphatidylinositol turnover; format: functional, cell-based, COS-7
C-X-C chemokine receptor type 4 (Homo sapiens, UniProt P61073, I284A), sequence (P61073 whole entry I284A): as the sequence (P61073 whole entry I259A, the tested form may be a part) above, with A259I, I284A counted along it

[14] = test system: C-X-C chemokine receptor type 4 (Homo sapiens), P61073 [I284A]; experiment: as §7; format: functional, cell-based; settings: COS-7
C-X-C chemokine receptor type 4 (Homo sapiens), P61073 [I284A], sequence (P61073 whole entry I284A): as the sequence (P61073 whole entry I259A, the tested form may be a part) above, with A259I, I284A counted along it

[15] = biological target: C-X-C chemokine receptor type 4 (Homo sapiens, UniProt P61073, H203A); experiment: (§8) Antagonist activity at human CXCR4 H203A mutant expressed in COS7 cells coexpressing G protein Gqi4myr assessed as inhibition of CXCL12-induced phosphatidylinositol turnover; format: functional, cell-based, COS-7
[16] = test system: C-X-C chemokine receptor type 4 (Homo sapiens), P61073 [H203A]; experiment: as §8; format: functional, cell-based; settings: COS-7
[17] = test system: C-X-C chemokine receptor type 4 (Homo sapiens), P61073 [I259W]; experiment: (§9) Antagonist activity at human CXCR4 I259W mutant expressed in COS7 cells coexpressing G protein Gqi4myr assessed as inhibition of CXCL12-induced phosphatidylinositol turnover; format: functional, cell-based; settings: COS-7
[18] = biological target: C-X-C chemokine receptor type 4 (Homo sapiens, UniProt P61073, I259W); experiment: as §9; format: functional, cell-based, COS-7
[19] = biological target: C-X-C chemokine receptor type 4 (Homo sapiens, UniProt P61073, V196A); experiment: (§10) Antagonist activity at human CXCR4 V196A mutant expressed in COS7 cells coexpressing G protein Gqi4myr assessed as inhibition of CXCL12-induced phosphatidylinositol turnover; format: functional, cell-based, COS-7
[20] = test system: C-X-C chemokine receptor type 4 (Homo sapiens), P61073 [V196A]; experiment: as §10; format: functional, cell-based; settings: COS-7
[21] = biological target: C-X-C chemokine receptor type 4 (Homo sapiens, UniProt P61073, Q200A); experiment: (§11) Antagonist activity at human CXCR4 Q200A mutant expressed in COS7 cells coexpressing G protein Gqi4myr assessed as inhibition of CXCL12-induced phosphatidylinositol turnover; format: functional, cell-based, COS-7
C-X-C chemokine receptor type 4 (Homo sapiens, UniProt P61073, Q200A), sequence (P61073 whole entry Q200A): as the sequence (P61073 whole entry I259A, the tested form may be a part) above, with Q200A, A259I counted along it

[22] = test system: C-X-C chemokine receptor type 4 (Homo sapiens), P61073 [Q200A]; experiment: as §11; format: functional, cell-based; settings: COS-7
C-X-C chemokine receptor type 4 (Homo sapiens), P61073 [Q200A], sequence (P61073 whole entry Q200A): as the sequence (P61073 whole entry I259A, the tested form may be a part) above, with Q200A, A259I counted along it

[23] = test system: C-X-C chemokine receptor type 4 (Homo sapiens), P61073 [L120F]; experiment: (§12) Antagonist activity at human CXCR4 L120F mutant expressed in COS7 cells coexpressing G protein Gqi4myr assessed as inhibition of CXCL12-induced phosphatidylinositol turnover; format: functional, cell-based; settings: COS-7
[24] = biological target: C-X-C chemokine receptor type 4 (Homo sapiens, UniProt P61073, L120F); experiment: as §12; format: functional, cell-based, COS-7
[25] = biological target: C-X-C chemokine receptor type 4 (Homo sapiens, UniProt P61073, E288A); experiment: (§13) Antagonist activity at human CXCR4 E288A mutant expressed in COS7 cells coexpressing G protein Gqi4myr assessed as inhibition of CXCL12-induced phosphatidylinositol turnover; format: functional, cell-based, COS-7
[26] = test system: C-X-C chemokine receptor type 4 (Homo sapiens), P61073 [E288A]; experiment: as §13; format: functional, cell-based; settings: COS-7
[27] = biological target: C-X-C chemokine receptor type 4 (Homo sapiens, UniProt P61073, Y255A); experiment: (§14) Antagonist activity at human CXCR4 Y255A mutant expressed in COS7 cells coexpressing G protein Gqi4myr assessed as inhibition of CXCL12-induced phosphatidylinositol turnover; format: functional, cell-based, COS-7
[28] = test system: C-X-C chemokine receptor type 4 (Homo sapiens), P61073 [Y255A]; experiment: as §14; format: functional, cell-based; settings: COS-7
[29] = test system: C-X-C chemokine receptor type 4 (Homo sapiens), P61073 [H281A]; experiment: (§15) Antagonist activity at human CXCR4 H281A mutant expressed in COS7 cells coexpressing G protein Gqi4myr assessed as inhibition of CXCL12-induced phosphatidylinositol turnover; format: functional, cell-based; settings: COS-7
[30] = biological target: C-X-C chemokine receptor type 4 (Homo sapiens, UniProt P61073, H281A); experiment: as §15; format: functional, cell-based, COS-7
[31] = test system: C-X-C chemokine receptor type 4 (Homo sapiens), P61073 [D171N]; experiment: (§16) Antagonist activity at human CXCR4 D171N mutant expressed in COS7 cells coexpressing G protein Gqi4myr assessed as inhibition of CXCL12-induced phosphatidylinositol turnover; format: functional, cell-based; settings: COS-7
C-X-C chemokine receptor type 4 (Homo sapiens), P61073 [D171N], sequence (P61073 whole entry D171N): as the sequence (P61073 whole entry I259A, the tested form may be a part) above, with D171N, A259I counted along it

[32] = biological target: C-X-C chemokine receptor type 4 (Homo sapiens, UniProt P61073, D171N); experiment: as §16; format: functional, cell-based, COS-7
C-X-C chemokine receptor type 4 (Homo sapiens, UniProt P61073, D171N), sequence (P61073 whole entry D171N): as the sequence (P61073 whole entry I259A, the tested form may be a part) above, with D171N, A259I counted along it

[33] = biological target: C-X-C chemokine receptor type 4 (Homo sapiens, UniProt P61073); experiment: Antagonist activity at human wild type CXCR4 expressed in COS7 cells coexpressing G protein Gqi4myr assessed as inhibition of CXCL12-induced phosphatidylinositol turnover; format: functional, cell-based, COS-7
C-X-C chemokine receptor type 4 (Homo sapiens, UniProt P61073), sequence (P61073 whole entry): as the sequence (P61073 whole entry I259A, the tested form may be a part) above, with A259I counted along it

[34] = biological target: C-X-C chemokine receptor type 4 (Homo sapiens, UniProt P61073, Q200W); experiment: (§17) Antagonist activity at human CXCR4 Q200W mutant expressed in COS7 cells coexpressing G protein Gqi4myr assessed as inhibition of CXCL12-induced phosphatidylinositol turnover; format: functional, cell-based, COS-7
[35] = test system: C-X-C chemokine receptor type 4 (Homo sapiens), P61073 [Q200W]; experiment: as §17; format: functional, cell-based; settings: COS-7

Cc1ccc(CN2CCCNCCNCCCNCC2)cc1
Ki [1]: 2.5 µM | logIC50 [2]: -5.6 | Ki [3]: 15 µM | logIC50 [4]: -4.82 | logIC50 [5]: -2.65 | Ki [6]: 2240 µM | Ki [7]: 275 µM | logIC50 [8]: -3.56 | Ki [9]: 2.9 µM | logIC50 [10]: -5.54 | Ki [11]: 3.3 µM | logIC50 [12]: -5.49 | Ki [13]: 2.3 µM | logIC50 [14]: -5.64 | Ki [15]: 32 µM | logIC50 [16]: -4.5 | logIC50 [17]: -4.62 | Ki [18]: 24 µM | Ki [19]: 28 µM | logIC50 [20]: -4.56 | Ki [21]: 80 µM | logIC50 [22]: -4.1 | logIC50 [23]: -4.87 | Ki [24]: 13 µM | Ki [25]: 303 µM | logIC50 [26]: -3.52 | Ki [27]: 37 µM | logIC50 [28]: -4.43 | logIC50 [29]: -4.66 | Ki [30]: 22 µM | logIC50 [31]: -3.97 | Ki [32]: 107 µM | Ki [33]: 20 µM | logIC50 ([33]; COS-7): -4.69 | Ki [34]: 60 µM | logIC50 [35]: -4.22
